15 molecules from PubChem BioAssay (NCI) can be followed below.

Holding throughout (assay): NCI anticancer screen, dose series, 48 h
Test [1] relates to A549 NSCLC.
Test [2] deals with IGROV1 ovarian.
Test [3] relates to K-562 leukemia.
Test [4] relates to HOP-92 NSCLC.
Test [5] has as its system M14 melanoma.
The test system of test [6] is DU-145 prostate.
For test [7], the system named is HL-60(TB) leukemia.
Test [8] concerns MDA-MB-435.
Test [9] relates to SNB-75 CNS.
Test [10] concerns HCC-2998 colon.

Values joined by “and” are separate entries in the source; they are usually repeats but may differ in a detail not shown here. Identical values can stand only once.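 Five compound concentrations were applied to cells in 96-well plates for 48 hours; endpoints were derived by simple linear interpolation of the resulting dose-response curve. The concentration for 50% growth inhibition is given as GI50. TGI: concentration producing complete growth inhibition.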 A value given as a limit tells only on which side of the number the result lay.

In the case of `CC(=O)N[C@@H](Cc1ccc(OP(=O)(O)O)cc1)C(=O)N[C@H]1CCC(=O)N2CCC[C@@H](C(=O)Nc3cccc4ccccc34)N2C1=O`, the GI50 in test [1] was above 25 µM; in [2], above 25 µM; in test [3], above 25 µM; in [4] it was above 23.9 µM; in test [5] it was above 25 µM; in [6], above 25 µM. The GI50 in [7] was above 25 µM; in [8], above 25 µM; in [9], above 19.8 µM; in test [10], above 25 µM. Further, the TGI in test [1], in test [2], in test [3], in [4], in test [5] and in [6] was above 25 µM throughout. Besides, the TGI in test [7], in [8], in test [9] and in test [10] was above 25 µM in each case.

Take `NC(=S)N/N=C1\c2cc(Cl)ccc2-c2c1cc(Cl)cc2[N+](=O)[O-]`: the GI50 was 4.05 µM in test [1]; 5.68 µM in test [2]; 4.76 µM in [3]; 2.22 µM in [4]; 3.27 µM in test [5]; 10.8 µM in test [6]. The GI50 in [7] is 6.15 µM; in test [8] it was 7.28 µM; in test [9], 2.84 µM; in test [10], 12.1 µM. Further, the TGI in test [1] was above 100 µM; in test [2], above 100 µM; in test [3], above 100 µM; in [4] it was 13.1 µM; in test [5], above 100 µM; in [6], above 100 µM. In addition, the TGI in test [7] is 51.9 µM; in [8], above 100 µM; in [9], 28.3 µM; in test [10] it was above 100 µM.

Turning to `NC(=S)N/N=C\c1nccc2c(C(F)(F)F)cccc12`, the GI50 was 0.293 µM in [1]; 0.365 µM in test [2]; 0.44 µM in test [3]; 0.226 µM in test [4]; 0.224 µM in test [5]; 0.292 µM in [6]. Moreover, the GI50 in test [7] was 0.286 µM; in [8] it was 0.481 µM; in [9] it was 0.284 µM; in test [10], 0.411 µM. The TGI was 3.26 µM in test [1]; 14.8 µM in [2]; 21.2 µM in test [3]; 1.35 µM in [4]; 0.706 µM in test [5]; above 39.3 µM in test [6]. The TGI in test [7] came to 1.19 µM; in test [8], 31.5 µM; in test [9] it was 16.7 µM; in test [10] it was 15.4 µM.

Take `C#Cc1cccc(Nc2nc3cc([N+](=O)[O-])ccc3nc2Nc2ccc(O)cc2)c1`: the GI50 in test [1] is 2.17 µM; in test [2] it was 1.78 µM; in [3], 2.1 µM; in [4], 1.79 µM; in test [5], 1.43 µM; in [6], 1.81 µM. The GI50 was 2.42 µM in [7], 1.67 µM in test [8], 1.36 µM in [9] and 1.75 µM in [10]. For the same molecule, the TGI in test [1] turned out to be 4.78 µM; in test [2] it was 4.37 µM; in test [3], 6.41 µM; in [4], 3.6 µM; in [5], 2.99 µM; in [6] it was 3.77 µM. In addition, the TGI in test [7] came to 5.63 µM; in test [8], 3.39 µM; in test [9] it was 3.42 µM; in [10], 3.45 µM.

With `Cc1cc2c(cc1C)[n+](=O)c(C(=O)c1ccccc1)c(C(F)F)n2[O-]`, the GI50 in [1] was 4.9 µM; in test [2] it was 15.1 µM; in test [3], 10.1 µM; in test [4] it was 37.7 µM; in test [5], 16.9 µM; in [6], 10.5 µM. The GI50 was 3.3 µM in test [7], 26.3 µM in [8], 60.9 µM in [9] and 32.8 µM in test [10]. Besides, the TGI was 27.4 µM in test [1]; above 100 µM in test [2]; above 100 µM in [3]; above 100 µM in test [4]; above 100 µM in [5]; 46.4 µM in [6]. The TGI in test [7] was 18.9 µM; in test [8] it was above 100 µM; in test [9], above 100 µM; in test [10] it was above 100 µM.

For `C=CC(=O)Nc1cc(Nc2nccc(-c3cn(C)c4ccccc34)n2)c(OC)cc1N(C)CCN(C)C`, the GI50 is 1.4 µM and 1.29 µM in [1]; 1.14 µM and 0.407 µM in [2]; 1.73 µM and 0.349 µM in [3]; 0.793 µM and 0.416 µM in test [4]; 1.91 µM and 1.73 µM in test [5]; 1.76 µM and 1.33 µM in [6]. Besides, the GI50 was 1.47 µM and 1.71 µM in [7]; 1.62 µM and 1.64 µM in test [8]; 3.52 µM and 2.57 µM in [9]; 1.56 µM and 1.48 µM in test [10]. For the same molecule, the TGI in test [1] was 4.17 µM and 3.87 µM; in [2], 7.58 µM and 2.68 µM; in test [3], 5.2 µM and 1.73 µM; in test [4] it was 8.39 µM and 3.49 µM; in test [5] it was 3.6 µM and 3.32 µM; in [6], 12 µM and > 10 µM. Also, the TGI is 3.33 µM and 3.99 µM in [7]; 3.03 µM and 3.14 µM in [8]; 16.4 µM and > 10 µM in [9]; 3.37 µM and 2.98 µM in [10].

With `COc1cc(-c2nn(-c3cccc(NC(=O)c4ccccc4)c3)cc2-c2ccncc2)ccc1Cl`, the GI50 in [1] was 0.496 µM; in [2], 0.572 µM; in test [3], 0.39 µM; in test [4], 0.269 µM; in test [5], 0.565 µM; in [6] it was 0.626 µM. Besides, the GI50 in test [7] is 0.376 µM; in [8] it was 0.184 µM; in [9] it was 0.575 µM; in test [10], 2.13 µM. Moreover, the TGI is above 60.6 µM in test [1]; above 100 µM in test [2]; above 100 µM in test [3]; 2.06 µM in test [4]; 12.8 µM in test [5]; 27.1 µM in [6]. For the same molecule, the TGI was 0.508 µM in test [8], above 100 µM in test [9] and 33.6 µM in [10].

Consider `O=C(NC1CCCCC1)NS(=O)(=O)c1ccc(N2N=C3c4ccccc4CC3C2c2ccc(Cl)cc2)cc1` (stereo not drawn), for which the GI50 was 17.9 µM in [1]; 5.98 µM in test [2]; 6.71 µM in test [3]; 10.8 µM in [4]; 10.8 µM in test [5]; 5.5 µM in [6]. Besides, the GI50 in [7] was 15.8 µM; in test [8] it was 18.5 µM; in [9], 13.2 µM; in [10], 3.56 µM. Besides, the TGI was 47 µM in test [1]; 25.5 µM in test [2]; 22.4 µM in [3]; 31.5 µM in test [4]; 24.4 µM in test [5]; 21.1 µM in [6]. The TGI in test [7] was 36.6 µM; in test [8], 50.3 µM; in test [9] it was 85.9 µM; in [10] it was 7.53 µM.

Consider `COc1cc2c(cc1OC)-c1cc(OC)c(OC)cc1C(CN(C)C)C2` (stereo not drawn), for which the GI50 was above 10 µM in test [1]; above 10 µM in test [2]; above 10 µM in [3]; 9.97 µM in [4]; above 10 µM in [5]; above 10 µM in test [6]. Also, the GI50 is above 10 µM in test [7], above 10 µM in test [8], 4.56 µM in test [9] and above 10 µM in test [10]. The TGI in test [1], in [2], in test [3], in test [4], in test [5] and in test [6] was above 10 µM in each case. Further, the TGI in test [7], in test [8], in [9] and in test [10] was above 10 µM in each case.

Turning to `CN(C)CC(O)c1ccc(/C=C/c2ccc(Cl)cc2)cc1` (stereo not drawn), the GI50 in [1] was 1.86 µM; in [2], 1.21 µM; in [3], 1.14 µM; in test [4], 1.26 µM; in test [5] it was 1.67 µM; in test [6], 1.52 µM. For the same molecule, the GI50 in test [7] is 1.11 µM; in test [8] it was 1.62 µM; in test [9] it was 1.71 µM; in test [10] it was 1.54 µM. In addition, the TGI was 3.38 µM in [1]; 2.64 µM in test [2]; 3.55 µM in test [3]; 3.13 µM in test [4]; 3.11 µM in test [5]; 2.85 µM in test [6]. Besides, the TGI in [7] was 2.7 µM; in [8], 3.13 µM; in test [9] it was 4.18 µM; in test [10], 2.97 µM.

Take `CC(C)[C@@H]1NC(=O)[C@]2(C)CSC(=N2)c2ccnc(c2)CNC(=O)C[C@@H](/C=C/CCS)OC1=O`: the GI50 in test [1] is 0.0635 µM; in test [2] it was 0.159 µM; in [3] it was 0.637 µM; in test [4], 0.363 µM; in test [5], 0.0957 µM; in [6], 0.231 µM. For the same molecule, the GI50 in [7] is 0.513 µM; in test [8], 0.111 µM; in [9] it was 0.0912 µM; in test [10] it was 0.173 µM. For the same molecule, the TGI is 1.33 µM in [1]; 2.43 µM in test [2]; above 100 µM in test [3]; 2.81 µM in [4]; above 100 µM in test [5]; above 100 µM in test [6]. In addition, the TGI is above 100 µM in test [7], 6.13 µM in test [8], above 100 µM in [9] and 0.869 µM in [10].

For `COc1cc2c(cc1OC)C(Cl)C(c1ccc(F)cc1)=C2Cl` (stereo not drawn), the TGI in [1] was 32.8 µM; in [2], 37.2 µM; in test [3], 44.6 µM; in test [4], 22.6 µM; in [5] it was 29.2 µM; in [6], 37.5 µM. The TGI in [7] is 24.2 µM; in test [8] it was 23.6 µM; in test [9] it was 29.1 µM; in [10] it was 28.5 µM.

For `COc1c2ccccc2c(OC)c2[nH]c(=O)ccc12`, the GI50 was 2.43 µM in test [1]; 5.73 µM in [2]; 6.39 µM in test [3]; 33.5 µM in test [4]; 0.843 µM in [5]; 1.54 µM in test [6]. In addition, the GI50 in test [7] is 12.4 µM; in [8], 1.98 µM; in test [9] it was 3.2 µM; in [10], 13.2 µM. The TGI in [1] is above 20.6 µM; in [2], above 100 µM; in test [3] it was above 100 µM; in [4], above 100 µM; in test [5], 2.37 µM; in [6] it was 3.32 µM. The TGI in test [7] is above 92.4 µM; in [8] it was 4.07 µM; in test [9], above 21.9 µM; in test [10], above 58.8 µM.

Take `Nc1nc2[nH]cc(CCc3ccc(C(=O)N[C@@H](CCC(=O)O)C(=O)O)cc3)c2c(=O)[nH]1`: the GI50 in test [1] was 0.587 µM; in test [5], 0.158 µM; in test [7], 0.684 µM; in test [10] it was 0.0576 µM. Further, the TGI in test [1], in [2], in test [3], in [4], in [5] and in test [6] was above 100 µM in each case. Also, the TGI in [7], in test [8], in test [9] and in test [10] was above 100 µM in each case.

As to `O=[N+]([O-])c1cc([N+](=O)[O-])c(C(F)(F)F)cc1NN=C(c1ccc(O)cc1)c1ccc(O)cc1`, the GI50 in [1] is 2.98 µM; in test [2], 3.79 µM; in test [3], 2.42 µM; in test [4] it was 3.05 µM; in [5] it was 3.18 µM; in test [6], 3.79 µM. The GI50 in test [7] was 3.12 µM; in test [8], 1.92 µM; in test [9], 3.53 µM; in [10], 3.2 µM. Besides, the TGI in [1] was determined as 14.5 µM; in [2], 14.4 µM; in test [3], 15.7 µM; in test [4], 18.8 µM; in test [5], 12.7 µM; in test [6], 13.8 µM. Besides, the TGI in test [7] was found to be 11.8 µM; in [8], 4.92 µM; in [9], 16.8 µM; in [10], 8.58 µM.
